Patent publication US20170101432A1, “CRYSTALLINE 3',5'-CYCLIC DIGUANYLIC ACID” (Yamasa Corporation, priority 2014, published 2017)

Test: Stability: storage at 50° C. in a desiccator containing saturated saline, HPLC purity measured
Format: physicochemical
Conditions: for relative residual ratio: storage at 50° C., saturated saline desiccator
Method: Note that the high performance liquid chromatography method was performed under the following condition. Column: Hydrosphere C18 (product of YMC Co., Ltd.) Eluate: 0.1M TEA-P (pH 6.0) Detection method: detection by UV 260 nm The crystals of 3′,5′-cyclic diguanylic acid of the present invention and the co-crystals with cobalt and the co-crystals with magnesium of Reference Examples were stored at 50° C. in a desiccator containing saturated saline, and HPLC purity of each of them was measured on days 0, 7, 31, 84 and 167 after the start of storage. The result of measurement of HPLC purity (%) is shown in Table 5 below and relative residual ratios (%) on each day for measurement after the start of storage, taking the purity of day 0 of measurement as 100%, are shown in Table 6.

[1] = day 0, purity of day 0 taken as 100%
[2] = day 0 after the start of storage at 50° C. in a desiccator containing saturated saline
[3] = day 7, purity of day 0 taken as 100%
[4] = day 7 of storage at 50° C. in a desiccator containing saturated saline
[5] = day 31, purity of day 0 taken as 100%
[6] = day 31 of storage at 50° C. in a desiccator containing saturated saline
[7] = day 84, purity of day 0 taken as 100%
[8] = day 84 of storage at 50° C. in a desiccator containing saturated saline
[9] = day 167, purity of day 0 taken as 100%
[10] = day 167 of storage at 50° C. in a desiccator containing saturated saline

relative residual ratio [1] [%] | HPLC purity [2] [%] | relative residual ratio [3] [%] | HPLC purity [4] [%] | relative residual ratio [5] [%] | HPLC purity [6] [%] | relative residual ratio [7] [%] | HPLC purity [8] [%] | relative residual ratio [9] [%] | HPLC purity [10] [%] | decrease rate of HPLC purity (after storing at 50° C. for 167 days in a desiccator containing saturated saline) | SMILES
100 | 99.8 | 100 | 99.7 | 99.8 | 99.6 | 100.0 | 99.8 | 99.5 | 99.3 |  | Nc1nc2c(ncn2C2OC3COP(=O)(O)OC4C(COP(=O)(O)OC3C2O)OC(n2cnc3c(=O)[nH]c(N)nc32)C4O)c(=O)[nH]1 (stereo not shown) [Mg, 3′,5′-cyclic diguanylic acid]
100 | 99.9 | 100 | 99.9 | 99.8 | 99.7 | 99.8 | 99.7 | 99.6 | 99.4 |  | Nc1nc2c(ncn2C2OC3COP(=O)(O)OC4C(COP(=O)(O)OC3C2O)OC(n2cnc3c(=O)[nH]c(N)nc32)C4O)c(=O)[nH]1 (stereo not shown) [Co, 3′,5′-cyclic diguanylic acid]
100 | 99.0 | 100.1 | 99.1 | 99.6 | 98.6 | 99.9 | 98.9 | 100.0 | 98.9 | less than 1% | Nc1nc2c(ncn2[C@@H]2O[C@@H]3COP(=O)(O)OC4C(O)[C@H](n5cnc6c(=O)[nH]c(N)nc65)O[C@@H]4COP(=O)(O)OC3C2O)c(=O)[nH]1 (stereo partly shown) [Present Invention, 3′,5′-cyclic diguanylic acid]
